Laboratory results reported in US7674612B2, “Infectious, chimeric hepatitis C virus, methods of producing the same and methods of use thereof” (The Rockefeller University, priority 2005, dated 2010).

How the values were obtained:
Type in all cases: cell-based, hepatitis C virus
HCVcc (FL-J6/JFH++) = experiment: Drug inhibition of HCVcc RNA replication in infected Huh-7.5 cells (Taqman); details: 48 hour post-infection; Huh-7.5 cells infected with FL-J6/JFH++; HCVcc RNA by Taqman
Procedure: Parallel cultures of Huh-7.5 cells were infected with FL-J6/JFH++ for 6 hours. Following removal of the inocula, cells were washed with PBS and fed with complete growth medium containing the indicated concentrations of antiviral drugs or a DMSO carrier control. RNAs were extracted after 2 days and the amount of accumulated HCVcc RNA quantitated by Taqman.
A panel of experimental HCV antiviral compounds were examined for their ability to inhibit RNA replication at 48 hour post-infection with HCVcc. One of these compounds, 2′-C-methyladenosine (Merck) is a nucleoside analog that inhibits the HCV RNA polymerase. Three other compounds (PI-1, Vertex; BILN2061, Boerhinger Ingelheim; and SCH6, Schering-Plough) target the serine protease activity of NS3 by competitive binding. […] For the polymerase inhibitor, the higher specific activity is likely due to the fact that we measured the accumulation of nascent RNAs post-infection, whereas replicon-based assays examine the decay of RNA after inhibiting established replication. The reduced activities of the protease inhibitors likely reflect reduced affinities of these drugs, developed to genotype 1 proteases, to bind to the JFH NS3 protein.

HCVcc = experiment: Effect of culture additives on HCVcc production (TCID50 assay)
Procedure: The procedure for immunohistochemical staining for NS5A has been adapted to determine the infectious virus concentration within samples. In one system, virus-containing samples were subjected to serial 10-fold dilutions (typically, 10^−1 to 10^−6) in complete growth medium. Each dilution was then used to infect multiple wells of Huh-7.5 cells seeded in 96-well plates. Following 2 or 3 day incubation, the cells are fixed and subjected to immunohistochemical staining for NS5A expression, as above. The assay plate was then scored for the number of infected wells (i.e. at least one infected cell per well) for each dilution (FIG. 3) and the virus titer was then calculated as the 50% end-point tissue-culture infectious dose per ml (TCID50/ml) according to the statistical method of Reed and Muench (Am. J. Hyg. 27:493-497 (1938)). The sensitivity of this assay was determined by volume of the lowest dilution and the number of replicates tested, and was typically 15.8 TCID50s/ml.
It was of interest to ascertain culturing conditions that increase the titer of infectious HCVcc. A large number of cell culture conditions were tested for their effect on HCVcc production. These included the choice of cell culture media, amount and type of fetal calf serum, as well as the addition of various additive compounds. […] For example, the following titers were recorded: 3.10×10^6 TCID50 (25 mM N-acetylcysteine) vs. 1.06×10^6 TCID50 (5 mM N-acetylcysteine) vs. 2.65×10^5 TCID50 (no N-acetylcysteine). Thus, the use of this compound in HCV-containing cell cultures permits a significant increase in yield of infectious HCVcc. Conditions have also been established for serum-free propagation of Huh-7.5 cells and HCVcc infection and production. These conditions include, but are not limited to, Dulbecco's Modified Eagle's Medium (DMEM)/F12 medium containing 10 μg/ml transferrin, 2 μg/ml insulin, 7.6 μM free fatty acids, 0.3 μM selenium, 0.1 μM hydrocortisone, 0.20% bovine serum albumin, and 20 ng/ml epidermal growth factor.

HCVcc (FL-J6/JFH) = experiment: Blocking of HCVcc infection of naïve Huh-7.5 by soluble recombinant CD81 or CD9 (NS5A immunostaining); details: 10 μg/ml, 1 hour at 37° C., naïve Huh-7.5, day 3
Procedure: A) Independent samples of FL-J6/JFH++ (3.16×10^4 TCID50/ml) were mixed with the indicated amounts of recombinant human monoclonal antibodies (IgGl) against HCV E2 (open circles) or dengue-3 E proteins (filled triangle). Following a 1 hour incubation at 37° C., the virus titers of each sample were determined as described for FIG. 3. Shown are the average±s.d. of three independent samples. The amount of input virus is indicated by the dashed line. B) Samples of FL-J6/JFH were incubated for 1 hour at 37° C. with 10 μg/ml of soluble recombinant CD81 or CD9 and used to infect naïve Huh-7.5. Infections were monitored at day 3 by immunostaining as described in FIG. 2B. C). FL-J6/JFH was used to infect standard HepG2 cells or HepG2 cells engineered to express human CD81. Infections were monitored as described in FIG. 2B.
To further examine the role of E2 in HCVcc entry, virus was preincubated with a recombinant form of the large extracellular loop from CD81, which binds E2 and acts as a receptor for HCV. […] In addition, the role of CD81 in mediating HCVcc entry was examined by infecting HepG2 cells, which lack CD81 expression, or HepG2 cells that have been engineered to express human CD81.

COc1ccc2c(O[C@@H]3C[C@H]4C(=O)N[C@]5(C(=O)O)C[C@H]5/C=C\CCCCC[C@H](NC(=O)OC5CCCC5)C(=O)N4C3)cc(-c3csc(NC(C)C)n3)nc2c1 [BILN2061]
ability to inhibit RNA replication post-infection with HCVcc (HCVcc (FL-J6/JFH++)): inhibited HCVcc replication

C[C@@]1(O)[C@H](O)[C@@H](CO)O[C@H]1n1cnc2c(N)ncnc21 [2′-C-methyladenosine]
ability to inhibit RNA replication post-infection with HCVcc (HCVcc (FL-J6/JFH++)): inhibited HCVcc replication

CC(=O)N[C@@H](CS)C(=O)O [N-acetylcysteine]
HCVcc titer (HCVcc; 5 mM N-acetylcysteine in culture): 1.06×10^6 TCID50
HCVcc titer (HCVcc; 25 mM N-acetylcysteine in culture): 3.10×10^6 TCID50
levels of HCVcc as determined by TCID50 assay (HCVcc; additive in cell culture): consistently gave higher levels of HCVcc

B1: recombinant form of the large extracellular loop from CD81: recombinant large extracellular loop of CD81, which binds E2 and acts as a receptor for HCV (protein)
chain: FVNKDQIAKDVKQFYDQALQQAVVDDDANNAKAVVKTFHETLDCCGSSTLTALTTSVLKNNLCPSGSNIISNLFKEDCHQKIDDLFSGK
HCVcc infection after preincubation of virus with recombinant protein (HCVcc (FL-J6/JFH)): blocked HCVcc infection

B2: large extracellular loop of CD9: large extracellular loop of CD9, a related tetraspanin (control) (protein)
chain: SHKDEVIKEVQEFYKDTYNKLKTKDEPQRETLKAIHYALNCCGLAGGVEQFISDICPKKDVLETFTVKSCPDAIKEVFDNKFHI
HCVcc infection after preincubation of virus with recombinant protein (HCVcc (FL-J6/JFH)): did not
